In ChEMBL document CHEMBL1201862, “PubChem BioAssay data set” (2004):
Active and inactive are the calls of the source.

Tests used:
Type in all cases: functional
[1] = target: cAMP-dependent protein kinase catalytic subunit PRKX (Homo sapiens, UniProt P51817)
[2] = target: Protein-tyrosine kinase 6 (Homo sapiens, UniProt Q13882)
[3] = target: Serine/threonine-protein kinase pim-1 (Homo sapiens, UniProt P11309)
[4] = target: Tyrosine-protein kinase ABL1 (Homo sapiens, UniProt P00519)
[5] = target: Tyrosine-protein kinase JAK3 (Homo sapiens, UniProt P52333)
[6] = target: Receptor-type tyrosine-protein kinase FLT3 (Homo sapiens, UniProt P36888);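 also: FLT3 was tested as one member of a kinome-wide kinase panel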
[7] = target: Serine/threonine-protein kinase Nek4 (Homo sapiens, UniProt P51957)
[8] = target: Serine/threonine-protein kinase Nek2 (Homo sapiens, UniProt P51955)
[9] = target: cGMP-dependent protein kinase 1 (Homo sapiens, UniProt Q13976);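 also: value from a kinome panel screen with PRKG1 as the panel member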
[10] = target: Interleukin-1 receptor-associated kinase 1 (Homo sapiens, UniProt P51617);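 also: IRAK1 tested as one member of a kinome panel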
[11] = target: Tyrosine-protein kinase SYK (Homo sapiens, UniProt P43405)
[12] = target: Homeodomain-interacting protein kinase 2 (Homo sapiens, UniProt Q9H2X6);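 also: measured within a kinome-wide kinase profiling panel, HIPK2 being one panel member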
[13] = target: Mitogen-activated protein kinase 12 (Homo sapiens, UniProt P53778);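 also: measured as one member of a kinome-wide kinase profiling panel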
Insulin receptor = Insulin receptor (Homo sapiens, UniProt P06213);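 also: insulin receptor kinase tested as one member of a kinome-wide kinase panel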
[14] = target: Tyrosine-protein kinase receptor TYRO3 (Homo sapiens, UniProt Q06418);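 also: TYRO3 value obtained as one member of a kinome-wide profiling panel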
[15] = target: BDNF/NT-3 growth factors receptor (Homo sapiens, UniProt Q16620);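 also: NTRK2 measured as one member of a broad kinome-wide kinase profiling panel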
[16] = target: Tyrosine-protein kinase Srms (Homo sapiens, UniProt Q9H3Y6);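 also: SRMS measured as one member of a kinome-wide kinase profiling panel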
[17] = target: Serine/threonine-protein kinase D2 (Homo sapiens, UniProt Q9BZL6);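 also: measured against PRKD2 as one member of a kinome-wide kinase profiling panel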
[18] = target: Dual specificity tyrosine-phosphorylation-regulated kinase 4 (Homo sapiens, UniProt Q9NR20)
[19] = target: Glycogen synthase kinase-3 beta (Homo sapiens, UniProt P49841);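 also: value comes from a broad kinome profiling panel, with GSK3B as the panel member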
[20] = target: Mast/stem cell growth factor receptor Kit (Homo sapiens, UniProt P10721);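 also: KIT entry within a kinase panel assay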
[21] = target: Receptor tyrosine-protein kinase erbB-4 (Homo sapiens, UniProt Q15303);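 also: ERBB4 member of a kinome-wide kinase profiling panel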
[22] = target: Serine/threonine-protein kinase Chk1 (Homo sapiens, UniProt O14757);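 also: measured as one member of a kinome-wide kinase profiling panel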
[23] = target: Dual specificity tyrosine-phosphorylation-regulated kinase 3 (Homo sapiens, UniProt O43781);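 also: measured as one member of a broad kinase panel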
Aurora kinase A = Aurora kinase A (Homo sapiens, UniProt O14965);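 also: value from the Navigating the Kinome kinase panel profiling, panel entry STK6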
[24] = target: Serine/threonine-protein kinase PLK3 (Homo sapiens, UniProt Q9H4B4)
[25] = target: Proto-oncogene tyrosine-protein kinase Src (Homo sapiens, UniProt P12931);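 also: SRC entry within a kinome-wide kinase profiling panel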
[26] = target: Serine/threonine-protein kinase PLK1 (Homo sapiens, UniProt P53350);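 also: PLK1 measured as one member of a kinome-wide profiling panel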
[27] = target: Tyrosine-protein kinase Blk (Homo sapiens, UniProt P51451);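 also: obtained as one member of a kinome-wide kinase assay panel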
[28] = target: Tyrosine-protein kinase ITK/TSK (Homo sapiens, UniProt Q08881);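 also: affinity for ITK measured as one member of a broad kinase panel profiling binding across the kinome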
[29] = target: Casein kinase I isoform gamma-1 (Homo sapiens, UniProt Q9HCP0);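 also: measured as the CSNK1G1 member of a kinome profiling panel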
[30] = target: Serine/threonine-protein kinase pim-2 (Homo sapiens, UniProt Q9P1W9);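 also: value comes from a broad kinase panel profiling study in which PIM2 was one of the panel members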
[31] = target: STE20-like serine/threonine-protein kinase (Homo sapiens, UniProt Q9H2G2)
Ephrin type-A receptor 2 = Ephrin type-A receptor 2 (Homo sapiens, UniProt P29317);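 also: EPHA2 tested as one member of a kinome-wide kinase panel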
[32] = target: Mitogen-activated protein kinase kinase kinase kinase 2 (Homo sapiens, UniProt Q12851);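 also: measured as one member of a kinome-wide kinase panel, with MAP4K2 as the panel entry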
[33] = target: Tyrosine-protein kinase Lyn (Homo sapiens, UniProt P07948);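 also: lyn as one member of a kinase panel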
[34] = target: Homeodomain-interacting protein kinase 4 (Homo sapiens, UniProt Q8NE63)
[35] = target: Hepatocyte growth factor receptor (Homo sapiens, UniProt P08581);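 also: kinase panel profiling across the kinome, with MET as the panel member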
[36] = target: Serine/threonine-protein kinase pim-3 (Homo sapiens, UniProt Q86V86);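 also: value obtained as one member of a broad kinase panel profiling effort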
[37] = target: RAC-gamma serine/threonine-protein kinase (Homo sapiens, UniProt Q9Y243)
[38] = target: Serine/threonine-protein kinase 17A (Homo sapiens, UniProt Q9UEE5)
[39] = target: Protein kinase C iota type (Homo sapiens, UniProt P41743);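 also: measured within a kinome-wide kinase panel, PRKCI as panel member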
[40] = target: 5'-AMP-activated protein kinase catalytic subunit alpha-1 (Homo sapiens, UniProt Q13131)
[41] = target: Tyrosine-protein kinase BTK (Homo sapiens, UniProt Q06187)
[42] = target: Serine/threonine-protein kinase Chk2 (Homo sapiens, UniProt O96017);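 also: CHEK2 entry within a kinome-wide screening panel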
[43] = target: Cyclin-dependent kinase 1 (Homo sapiens, UniProt P06493);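 also: Kinome-wide panel profiling, with the target listed as panel member CDC2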
[44] = target: Proto-oncogene tyrosine-protein kinase ROS (Homo sapiens, UniProt P08922);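 also: ROS1 tested as one member of a kinome-wide kinase panel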

Chain of Protein kinase C iota type (P41743 whole entry): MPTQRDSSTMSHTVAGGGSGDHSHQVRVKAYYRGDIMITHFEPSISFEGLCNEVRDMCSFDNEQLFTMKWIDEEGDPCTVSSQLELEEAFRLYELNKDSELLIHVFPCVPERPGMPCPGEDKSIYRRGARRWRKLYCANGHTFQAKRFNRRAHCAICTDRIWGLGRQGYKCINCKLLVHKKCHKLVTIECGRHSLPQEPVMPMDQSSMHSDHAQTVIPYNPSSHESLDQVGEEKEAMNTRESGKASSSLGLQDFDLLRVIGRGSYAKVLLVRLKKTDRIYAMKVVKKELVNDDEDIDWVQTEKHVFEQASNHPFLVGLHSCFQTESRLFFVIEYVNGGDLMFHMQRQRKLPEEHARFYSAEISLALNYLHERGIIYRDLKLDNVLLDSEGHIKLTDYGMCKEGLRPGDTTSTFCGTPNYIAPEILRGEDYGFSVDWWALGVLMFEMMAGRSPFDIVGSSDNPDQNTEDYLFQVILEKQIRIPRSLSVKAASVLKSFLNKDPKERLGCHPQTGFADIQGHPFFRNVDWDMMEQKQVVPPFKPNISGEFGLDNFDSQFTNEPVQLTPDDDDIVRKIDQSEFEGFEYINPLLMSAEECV
Chain of Serine/threonine-protein kinase Nek4 (P51957 whole entry): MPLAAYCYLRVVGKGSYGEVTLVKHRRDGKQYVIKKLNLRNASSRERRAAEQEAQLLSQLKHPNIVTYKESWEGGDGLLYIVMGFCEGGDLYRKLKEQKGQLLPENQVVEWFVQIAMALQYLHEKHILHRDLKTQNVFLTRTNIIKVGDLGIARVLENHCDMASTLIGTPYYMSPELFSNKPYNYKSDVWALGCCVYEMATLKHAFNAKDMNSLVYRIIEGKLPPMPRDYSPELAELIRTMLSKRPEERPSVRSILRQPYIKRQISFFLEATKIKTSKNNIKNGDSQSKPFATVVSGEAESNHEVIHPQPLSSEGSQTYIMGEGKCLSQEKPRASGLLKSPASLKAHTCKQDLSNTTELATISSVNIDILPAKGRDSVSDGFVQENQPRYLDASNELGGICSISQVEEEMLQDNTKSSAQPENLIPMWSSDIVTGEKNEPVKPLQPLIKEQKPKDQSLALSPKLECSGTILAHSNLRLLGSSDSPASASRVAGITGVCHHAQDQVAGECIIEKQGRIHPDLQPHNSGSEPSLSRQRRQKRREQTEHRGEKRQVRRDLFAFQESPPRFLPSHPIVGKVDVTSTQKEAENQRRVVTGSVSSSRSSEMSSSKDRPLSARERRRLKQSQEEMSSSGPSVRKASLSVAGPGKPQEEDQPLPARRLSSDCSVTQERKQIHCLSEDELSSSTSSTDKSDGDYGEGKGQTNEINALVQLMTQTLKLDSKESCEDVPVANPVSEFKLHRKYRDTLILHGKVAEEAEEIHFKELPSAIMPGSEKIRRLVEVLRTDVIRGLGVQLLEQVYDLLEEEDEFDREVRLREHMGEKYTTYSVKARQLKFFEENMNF
Chain of Proto-oncogene tyrosine-protein kinase Src (P12931 2-536 limits assumed): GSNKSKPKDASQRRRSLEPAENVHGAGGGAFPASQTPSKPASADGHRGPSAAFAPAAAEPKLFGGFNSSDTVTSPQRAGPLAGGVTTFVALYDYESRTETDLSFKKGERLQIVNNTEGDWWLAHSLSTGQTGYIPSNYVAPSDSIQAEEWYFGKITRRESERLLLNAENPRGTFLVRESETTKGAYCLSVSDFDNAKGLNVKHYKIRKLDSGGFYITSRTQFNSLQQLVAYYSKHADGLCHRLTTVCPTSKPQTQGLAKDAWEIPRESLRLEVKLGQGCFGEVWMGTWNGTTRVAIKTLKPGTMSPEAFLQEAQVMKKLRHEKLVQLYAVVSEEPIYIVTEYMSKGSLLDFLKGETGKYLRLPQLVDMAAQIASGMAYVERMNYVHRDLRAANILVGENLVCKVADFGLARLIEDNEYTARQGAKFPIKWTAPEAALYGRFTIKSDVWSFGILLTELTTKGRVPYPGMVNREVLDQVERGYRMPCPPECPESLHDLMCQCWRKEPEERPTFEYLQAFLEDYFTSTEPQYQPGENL
Chain of STE20-like serine/threonine-protein kinase (Q9H2G2 whole entry): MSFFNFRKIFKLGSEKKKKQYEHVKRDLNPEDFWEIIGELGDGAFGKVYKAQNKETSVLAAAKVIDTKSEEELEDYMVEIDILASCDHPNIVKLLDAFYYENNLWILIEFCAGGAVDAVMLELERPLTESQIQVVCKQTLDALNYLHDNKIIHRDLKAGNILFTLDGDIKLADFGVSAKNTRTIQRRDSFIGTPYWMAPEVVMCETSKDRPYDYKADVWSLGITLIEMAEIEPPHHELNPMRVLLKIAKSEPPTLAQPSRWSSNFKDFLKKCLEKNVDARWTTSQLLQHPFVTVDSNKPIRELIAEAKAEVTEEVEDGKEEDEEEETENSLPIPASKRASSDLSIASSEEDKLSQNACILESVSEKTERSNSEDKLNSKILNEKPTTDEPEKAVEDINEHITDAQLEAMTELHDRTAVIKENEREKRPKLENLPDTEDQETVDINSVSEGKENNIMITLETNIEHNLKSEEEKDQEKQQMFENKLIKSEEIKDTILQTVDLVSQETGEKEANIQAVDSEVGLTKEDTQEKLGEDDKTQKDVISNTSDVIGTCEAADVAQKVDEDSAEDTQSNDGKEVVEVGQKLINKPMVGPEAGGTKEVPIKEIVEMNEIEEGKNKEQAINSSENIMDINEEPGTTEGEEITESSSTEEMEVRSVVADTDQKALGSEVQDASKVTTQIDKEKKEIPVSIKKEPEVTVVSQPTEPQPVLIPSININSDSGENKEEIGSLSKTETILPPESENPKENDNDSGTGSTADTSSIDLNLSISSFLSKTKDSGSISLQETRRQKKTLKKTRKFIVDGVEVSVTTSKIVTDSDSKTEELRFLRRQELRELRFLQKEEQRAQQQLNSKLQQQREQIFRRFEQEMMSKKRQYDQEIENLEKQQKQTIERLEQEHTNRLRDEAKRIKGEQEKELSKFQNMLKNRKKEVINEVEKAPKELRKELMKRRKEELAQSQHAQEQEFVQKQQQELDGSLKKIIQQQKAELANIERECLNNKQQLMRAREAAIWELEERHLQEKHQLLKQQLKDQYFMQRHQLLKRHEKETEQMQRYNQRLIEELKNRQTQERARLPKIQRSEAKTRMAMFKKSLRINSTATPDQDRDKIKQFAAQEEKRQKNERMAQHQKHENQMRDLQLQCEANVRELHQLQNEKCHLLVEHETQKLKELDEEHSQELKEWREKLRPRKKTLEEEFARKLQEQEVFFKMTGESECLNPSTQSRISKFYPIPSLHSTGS
Chain of Tyrosine-protein kinase ABL1 (P00519 whole entry): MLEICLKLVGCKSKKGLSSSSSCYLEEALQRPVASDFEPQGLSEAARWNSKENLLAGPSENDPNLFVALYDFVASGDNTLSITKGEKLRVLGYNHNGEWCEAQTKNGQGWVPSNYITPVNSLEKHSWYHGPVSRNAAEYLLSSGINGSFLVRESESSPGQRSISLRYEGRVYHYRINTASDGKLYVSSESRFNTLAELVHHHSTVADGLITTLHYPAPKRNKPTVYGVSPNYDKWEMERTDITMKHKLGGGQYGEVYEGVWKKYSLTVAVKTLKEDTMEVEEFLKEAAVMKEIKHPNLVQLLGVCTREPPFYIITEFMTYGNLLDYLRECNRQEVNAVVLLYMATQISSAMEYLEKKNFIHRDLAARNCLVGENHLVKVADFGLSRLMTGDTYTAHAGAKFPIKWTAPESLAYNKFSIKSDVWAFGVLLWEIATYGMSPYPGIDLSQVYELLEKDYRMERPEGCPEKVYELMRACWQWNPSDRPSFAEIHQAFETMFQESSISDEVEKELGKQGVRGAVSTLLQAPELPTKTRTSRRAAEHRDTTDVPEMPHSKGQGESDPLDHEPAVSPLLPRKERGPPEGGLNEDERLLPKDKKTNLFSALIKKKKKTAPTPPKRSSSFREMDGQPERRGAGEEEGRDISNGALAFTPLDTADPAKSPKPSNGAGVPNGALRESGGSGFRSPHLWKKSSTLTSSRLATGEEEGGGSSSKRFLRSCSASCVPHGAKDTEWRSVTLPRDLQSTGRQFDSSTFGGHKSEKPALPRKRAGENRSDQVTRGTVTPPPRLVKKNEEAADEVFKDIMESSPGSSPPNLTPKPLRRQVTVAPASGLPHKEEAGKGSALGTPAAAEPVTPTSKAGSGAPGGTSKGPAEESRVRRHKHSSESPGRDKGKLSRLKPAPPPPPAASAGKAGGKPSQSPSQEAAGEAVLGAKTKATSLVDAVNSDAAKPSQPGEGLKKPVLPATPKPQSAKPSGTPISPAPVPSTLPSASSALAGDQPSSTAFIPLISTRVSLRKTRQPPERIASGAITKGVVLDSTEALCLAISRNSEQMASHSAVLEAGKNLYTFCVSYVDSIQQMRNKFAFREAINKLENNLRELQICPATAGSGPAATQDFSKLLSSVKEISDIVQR
Chain of Serine/threonine-protein kinase PLK3 (Q9H4B4 whole entry): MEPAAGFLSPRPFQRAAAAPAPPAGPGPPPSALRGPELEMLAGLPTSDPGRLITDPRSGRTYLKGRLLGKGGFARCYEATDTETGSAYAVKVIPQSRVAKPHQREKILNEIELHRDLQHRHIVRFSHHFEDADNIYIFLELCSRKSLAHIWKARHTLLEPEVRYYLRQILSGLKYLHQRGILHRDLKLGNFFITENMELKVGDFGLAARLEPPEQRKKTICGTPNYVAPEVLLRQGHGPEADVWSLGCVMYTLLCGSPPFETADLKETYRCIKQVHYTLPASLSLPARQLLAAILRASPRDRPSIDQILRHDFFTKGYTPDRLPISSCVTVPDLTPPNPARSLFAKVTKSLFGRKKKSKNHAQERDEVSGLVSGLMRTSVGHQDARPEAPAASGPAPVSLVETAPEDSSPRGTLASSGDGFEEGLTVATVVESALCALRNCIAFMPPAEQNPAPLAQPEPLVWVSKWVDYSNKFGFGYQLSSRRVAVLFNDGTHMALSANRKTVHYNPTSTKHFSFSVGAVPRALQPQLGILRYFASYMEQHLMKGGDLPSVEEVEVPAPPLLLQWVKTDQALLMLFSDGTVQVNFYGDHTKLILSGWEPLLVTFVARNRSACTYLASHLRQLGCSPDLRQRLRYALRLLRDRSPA

`NC(=O)Cn1cc(-c2cc(-c3cc4ccccc4s3)c3[nH]ncc3c2)c2nc(N)ncc21` was tested, and the Ki [1] was 39.8 nM (active), the Ki [2] was > 2510 nM (inactive) and the Ki [3] was 3160 nM (active). For the same molecule, the Ki [4] was > 631 nM (inactive), the Ki [5] was > 1580 nM (inactive) and the Ki [6] was 1260 nM (active). For the same molecule, the Ki [7] was 3980 nM (active), the Ki [8] was > 10000 nM (inactive) and the Ki [9] was 398 nM (active). The Ki [10] was 7940 nM (active), the Ki [11] was 200 nM (active) and the Ki [12] was > 3160 nM (inactive). The Ki [13] was 5010 nM (active), the Ki (Insulin receptor) was > 5010 nM (inactive) and the Ki [14] was > 2000 nM (inactive). The Ki [15] was > 5010 nM (inactive), the Ki [16] was > 1580 nM (inactive) and the Ki [17] was 794 nM (active). For the same molecule, the Ki [18] was 2000 nM (active), the Ki [19] was 100 nM (active) and the Ki [20] was > 1260 nM (inactive). For the same molecule, the Ki [21] was > 3980 nM (inactive), the Ki [22] was > 7940 nM (inactive) and the Ki [23] was 631 nM (active). The Ki (Aurora kinase A) was 1260 nM (active), the Ki [24] was > 7940 nM (inactive) and the Ki [25] was > 2000 nM (inactive). The Ki [26] was > 7940 nM (inactive), the Ki [27] was > 1580 nM (inactive) and the Ki [28] was > 1580 nM (inactive). The Ki [29] was > 6310 nM (inactive), the Ki [30] was > 1580 nM (inactive) and the Ki [31] was 1580 nM (active). The Ki (Ephrin type-A receptor 2) was > 3160 nM (inactive), the Ki [32] was 501 nM (active) and the Ki [33] was > 1580 nM (inactive). For the same molecule, the Ki [34] was > 7940 nM (inactive), the Ki [35] was 2510 nM (active) and the Ki [36] was 3160 nM (active). The Ki [37] was > 10000 nM (inactive), the Ki [38] was 251 nM (active) and the Ki [39] was 63.1 nM (active). The Ki [40] was 631 nM (active), the Ki [41] was > 1260 nM (inactive) and the Ki [42] was 39.8 nM (active). For the same molecule, the Ki [43] was 1580 nM (active) and the Ki [44] was > 2000 nM (inactive).
